From publication PMC8428568, “Discovery of re-purposed drugs that slow SARS-CoV-2 replication in human cells” (PLoS Pathogens, 2021)
Structures can show the parent of a compound that is named as a salt. Where two headings read alike, the source gives them in different places.

What was measured:
[1] = test system: SARS-CoV-2-ΔOrf7a-NLuc virus; assay: microbe, parasite or virus in culture; format: cell-based; details: for activity at 10 µM: Severe acute respiratory syndrome coronavirus 2, Vero, 72 h, read-out: Mean relative luminescence (n=4)
recombinant NLuc = format: biochemical; details: for Relative Recombinant NLUC: recombinant NLuc activity relative to DMSO; for Reads Counts per second (read 1) / Reads Counts per second (read 4) / Reads Counts per second (read 2) / Reads Counts per second (read 3): recombinant NLuc; for Reads Counts per second (read 1): first read column; for Reads Counts per second (read 4): fourth read column; for Reads Counts per second (read 3): third read column
HUH7 cells = details: for PrestoBlue relative viability: HUH7 screen; for toxic effects on cells: HUH7 cells screen
[2] = test system: SARS-CoV-2-ΔOrf7a-NLuc virus; assay: microbe, parasite or virus in culture; format: cell-based; details: for Mean relative luminescence (n=4): HUH7 screen
[3] = Vero screen, relative luminescence
[4] = 1 = untreated, 0 = total inhibition
[5] = Vero cells, 10 μM, 1 = DMSO-treated infected cells

Row | SMILES | % activity in Vero 100PFU screen [1] [%] | Mean relative luminescence (n=4) [1, 3] | Mean relative luminescence (n=4) [1, 4] | Relative Recombinant NLUC (recombinant NLuc) | Reads Counts per second (read 1) (recombinant NLuc) [Counts per second] | Reads Counts per second (read 4) (recombinant NLuc) [Counts per second] | Reads Counts per second (read 2) (recombinant NLuc) [Counts per second] | Reads Counts per second (read 3) (recombinant NLuc) [Counts per second] | PrestoBlue relative viability (Vero cells; [5]) | PrestoBlue relative viability (Vero cells; Vero screen) | PrestoBlue relative viability (HUH7 cells) | Mean relative luminescence (n=4) [2] | activity at 10 µM [1, 4] [%] | toxic effects on cells (HUH7 cells) | effect on virus replication [2]
1 | COC(=O)C1=C(C)NC(C)=C(C(=O)O[C@@H]2CCCN(Cc3ccccc3)C2)[C@@H]1c1cccc([N+](=O)[O-])c1.Cl (racemic) [Benidipine HCl] | 1.81 | 0.003673 | 0.003673 | 0.1313 | 50508 | 49177 | 49563 | 49185 | 0.8086 | 0.8086 | 0.6609 | 0.003821 |  |  | 
2 | CCCCc1oc2ccccc2c1C(=O)c1cc(I)c(OCCN(CC)CC)c(I)c1 [Amiodarone HCl] |  | 0.03182 |  | 0.9671 | 364410 | 366409 | 365102 | 365644 | 0.8378 | 0.8378 | 0.9633 | 0.03404 | 3.18 |  | 
3 | CCOC(=O)C1=C(COCCN)NC(C)=C(C(=O)OC)C1c1ccccc1Cl (stereo not shown) [Amlodipine Besylate] |  | 0.124 |  |  |  |  |  |  | 1.385 | 1.385 | 0.6859 | 0.03381 | 12.4 |  | 
4 | O=C1CCc2ccc(OCCCCN3CCN(c4cccc(Cl)c4Cl)CC3)cc2N1 [Aripiprazole] |  | 0.1007 |  |  |  |  |  |  | 0.6278 | 0.6278 | 0.7416 | 0.008694 | 10.1 |  | 
5 | COc1nc2ccc(Br)cc2cc1[C@@H](c1ccccc1)[C@@](O)(CCN(C)C)c1cccc2ccccc12.O=C(O)/C=C/C(=O)O [Bedaquiline fumarate] | 3.58 | 0.01053 | 0.01053 | 0.9227 | 351974 | 338630 | 352561 | 351293 | 1.113 | 1.113 | 0.5224 | 0.1084 |  |  | 
6 | COc1cc2nccc(Oc3ccc(NC(=O)C4(C(=O)Nc5ccc(F)cc5)CC4)cc3)c2cc1OC [Cabozantinib malate (XL184), Cabozantinib malate] | 12 | 0.1026 |  | 0.8679 | 333265 | 328687 |  | 329153 | 0.5119 | 0.5119 | 0.8011 | 0.03412 | 10.3 |  | 
7 | CN(C)CC/C=C1/c2ccccc2Sc2ccc(Cl)cc21.Cl [Chlorprothixene (hydrochloride)] | 4.28 | 0.0137 | 0.0137 | 0.9574 | 359664 | 361186 |  | 361391 | 0.8299 | 0.8299 | 0.7623 | 0.03176 |  |  | 
8 | Cl.Cl.Fc1ccc(C(c2ccc(F)cc2)N2CCN(C/C=C/c3ccccc3)CC2)cc1 [Flunarizine 2HCl] |  | 0.1133 | 0.1133 |  |  |  |  |  | 2.629 | 2.629 | 0.9689 | 0.1091 |  |  | 
9 | COC(=O)C[C@](O)(CCCC(C)(C)O)C(=O)O[C@@H]1C(OC)=C[C@]23CCCN2CCc2cc4c(cc2[C@H]13)OCO4 [Homoharringtonine] |  | 0.01441 |  |  |  |  |  |  | 0.5068 | 0.5068 | 0.6794 | 0.0133 | 1.44 |  | 
10 | Cc1ccc(NC(=O)c2ccc(CN3CCN(C)CC3)cc2)cc1Nc1nc(-c2cccnc2)cs1 [Masitinib (AB1010), Masitinib] |  | 0.1339 |  |  |  |  |  |  | 1.308 | 1.308 | 0.7156 | 0.03917 | 13.4 |  | 
11 | CC[C@H]1OC(=O)[C@H](C)[C@@H](O[C@H]2C[C@@](C)(OC)[C@@H](O)[C@H](C)O2)[C@H](C)[C@@H](O[C@@H]2O[C@H](C)C[C@H](N(C)C)[C@H]2O)[C@](C)(O)C[C@@H](C)CN(C)[C@H](C)[C@@H](O)[C@]1(C)O [azithromycin] |  |  |  |  |  |  |  |  |  |  |  |  |  | toxic effects on cells | did show some effects
12 | CCN(CCO)CCCC(C)Nc1ccnc2cc(Cl)ccc12 (stereo not shown) [hydroxychloroquine] |  |  |  |  |  |  |  |  |  |  |  |  |  | toxic effects on cells | did show some effects
